Molecules are shown by their SMILES. Some results are limits rather than exact numbers.

T1 sequence (P51812 whole entry): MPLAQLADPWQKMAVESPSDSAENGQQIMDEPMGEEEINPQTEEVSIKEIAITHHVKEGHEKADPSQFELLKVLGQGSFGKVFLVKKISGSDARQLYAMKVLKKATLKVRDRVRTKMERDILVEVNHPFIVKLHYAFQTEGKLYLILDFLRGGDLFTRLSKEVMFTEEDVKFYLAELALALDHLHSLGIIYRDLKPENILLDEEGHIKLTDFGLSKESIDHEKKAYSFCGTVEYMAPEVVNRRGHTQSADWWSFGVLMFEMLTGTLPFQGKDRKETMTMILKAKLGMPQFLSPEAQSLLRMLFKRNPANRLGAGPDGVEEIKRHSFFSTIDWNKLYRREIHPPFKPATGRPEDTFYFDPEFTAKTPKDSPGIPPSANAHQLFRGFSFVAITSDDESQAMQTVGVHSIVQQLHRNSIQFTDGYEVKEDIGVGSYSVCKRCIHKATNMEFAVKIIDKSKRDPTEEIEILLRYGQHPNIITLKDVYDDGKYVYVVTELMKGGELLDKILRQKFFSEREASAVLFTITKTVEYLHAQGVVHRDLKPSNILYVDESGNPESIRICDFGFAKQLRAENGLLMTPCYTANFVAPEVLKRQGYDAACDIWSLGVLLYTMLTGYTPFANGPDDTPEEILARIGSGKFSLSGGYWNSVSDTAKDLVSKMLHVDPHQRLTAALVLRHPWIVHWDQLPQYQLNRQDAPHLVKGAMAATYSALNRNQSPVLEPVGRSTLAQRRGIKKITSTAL

This assay has as its target T1, His-tagged full-length RSK2 (RPS6KA3) (Homo sapiens, UniProt P51812).
T1 construct: His-tagged full-length RSK2 (RPS6KA3, Invitrogen PV3323); His; purchased Invitrogen PV3323
In words: RSK2 Omnia Assay for compound IC50 determination. It counts as biochemical. The following applies: ATP 15 μM, n=2, read-out: Mean RSK2 Biochem IC50. Summed up: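 Continuous fluorescence assay (ex 360/em 485 nm) of SOX-peptide (Omnia ST Peptide 6, 5 μM) phosphorylation with ATP 15 μM (Km 16.3 μM). Enzyme was […], in pH 7.5 HEPES/MgCl2 buffer with 1% DMSO. IC50 came from 11-point threefold dilutions ([…]) by four-parameter fit of initial slopes, in duplicate; Ki by Cheng-Prusoff assuming competitive inhibition.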
The term IC50 denotes the concentration needed to halve the response being measured. As to `N#Cc1cccc(N2C(=O)[C@@H](CF)N(C3CCCC3)c3nc(Nc4cc(F)c5[nH]ncc5c4)ncc32)c1` [Example 221, 3-[(7S)-8-cyclopentyl-2-[(7-fluoro-1H-indazol-5-yl)amino]-7-(fluoromethyl)-6-oxo-7,8-dihydropteridin-5(6H)-yl]benzonitrile], the IC50 is no more than 100 nM. The same measure for `N#Cc1cccc(N2C(=O)[C@@H](CF)N(C3CCCC3)c3nc(Nc4ccc5[nH]ncc5c4)ncc32)c1` [Example 222, 3-[(7S)-8-cyclopentyl-7-(fluoromethyl)-2-(1H-indazol-5-ylamino)-6-oxo-7,8-dihydropteridin-5(6H)-yl]benzonitrile]: no more than 100 nM.

As for `C[C@@H]1C(=O)N(c2cccc(C#N)c2)c2cnc(Nc3cc(F)c4[nH]ncc4c3)nc2N1C1CCC(F)(F)CC1` [Example 260, 3-[(7R)-8-(4,4-difluorocyclohexyl)-2-[(7-fluoro-1H-indazol-5-yl)amino]-7-methyl-6-oxo-7,8-dihydropteridin-5(6H)-yl]benzonitrile], the IC50 was no more than 100 nM.

Consider `C[C@@H]1C(=O)N(c2cccc(C#N)c2)c2cnc(Nc3cc(F)c4[nH]ncc4c3)nc2N1C1CCC2(CC1)CC2` [Example 297, 3-[(7R)-2-[(7-fluoro-1H-indazol-5-yl)amino]-7-methyl-6-oxo-8-(spiro[2.5]oct-6-yl)-7,8-dihydropteridin-5(6H)-yl]benzonitrile], for which the IC50 is no more than 100 nM. For the compound `C[C@@H]1C(=O)N(c2cccnc2)c2cnc(Nc3cc(F)c4[nH]ncc4c3)nc2N1C1CCC2(CC1)CC2` [Example 298, (7R)-2-[(7-fluoro-1H-indazol-5-yl)amino]-7-methyl-5-(pyridin-3-yl)-8-(spiro[2.5]oct-6-yl)-7,8-dihydropteridin-6(5H)-one], the IC50 was no more than 100 nM. The same measure for `COc1ccc(N2C(=O)[C@@H](C)N(C3CCC4(CC3)CC4)c3nc(Nc4cc(F)c5[nH]ncc5c4)ncc32)cc1OC` [Example 299, (7R)-5-(3,4-dimethoxyphenyl)-2-[(7-fluoro-1H-indazol-5-yl)amino]-7-methyl-8-(spiro[2.5]oct-6-yl)-7,8-dihydropteridin-6(5H)-one]: no more than 100 nM. The same measure for `C[C@@H]1C(=O)N(c2ccc[n+]([O-])c2)c2cnc(Nc3cc(F)c4[nH]ncc4c3)nc2N1C1CCCCC1` [Example 303, (7R)-8-cyclohexyl-2-[(7-fluoro-1H-indazol-5-yl)amino]-7-methyl-5-(1-oxidopyridin-3-yl)-7,8-dihydropteridin-6(5H)-one]: no more than 100 nM. As to `CC(C)CCn1c(=O)c(=O)n(-c2ccccc2)c2cnc(Nc3ccc4[nH]ncc4c3)nc21` [Example 305, 2-(1H-indazol-5-ylamino)-8-(3-methylbutyl)-5-phenyl-5,8-dihydropteridine-6,7-dione], the IC50 is greater than 1000 nM. The same measure for `CC(C)CCn1c(=O)c(=O)n(-c2ccccc2)c2cnc(Nc3ccc4c(c3)CC(=O)N4)nc21` [Example 306, 8-(3-methylbutyl)-2-[(2-oxo-2,3-dihydro-1H-indol-5-yl)amino]-5-phenyl-5,8-dihydropteridine-6,7-dione]: greater than 1000 nM. As to `O=c1c(=O)n(C2CCCC2)c2nc(Nc3ccc4[nH]ncc4c3)ncc2n1-c1ccccc1` [Example 307, 8-cyclopentyl-2-(1H-indazol-5-ylamino)-5-phenyl-5,8-dihydropteridine-6,7-dione], the IC50 was in the range of 100 to 1000 nM. The same measure for `CC(C)CCN1c2cc(Nc3ccc4[nH]ncc4c3)ncc2N(c2ccccc2)C(=O)C1C` (centres unmarked) [Example 310, 7-(1H-indazol-5-ylamino)-2-methyl-1-(3-methylbutyl)-4-phenyl-1,4-dihydropyrido[3,4-b]pyrazin-3(2H)-one]: 100 to 1000 nM.

As to `C[C@@H]1C(=O)N(c2cc(F)cc(F)c2)c2cnc(Nc3ccc4[nH]ncc4c3)nc2N1C1CCCCC1` [compound 95, (7R)-8-cyclohexyl-5-(3,5-difluorophenyl)-2-(1H-indazol-5-ylamino)-7-methyl-7,8-dihydropteridin-6(5H)-one], the IC50 was no more than 100 nM. The same measure for `C[C@@H]1C(=O)N(c2ccc(F)c(C#N)c2)c2cnc(Nc3ccc4[nH]ncc4c3)nc2N1C1CCCCC1` [compound 96, 5-[(7R)-8-cyclohexyl-2-(1H-indazol-5-ylamino)-7-methyl-6-oxo-7,8-dihydropteridin-5(6H)-yl]-2-fluorobenzonitrile]: no more than 100 nM; for `C[C@@H]1C(=O)N(c2cccc(C#N)c2)c2cnc(Nc3cc(Cl)c4[nH]ncc4c3)nc2N1C1CCCCC1` [compound 97, 3-[(7R)-2-[(7-chloro-1H-indazol-5-yl)amino]-8-cyclohexyl-7-methyl-6-oxo-7,8-dihydropteridin-5(6H)-yl]benzonitrile]: no more than 100 nM. The same measure for `CSc1ccc(N2C(=O)[C@@H](C)N(C3CCCCC3)c3nc(Nc4ccc5[nH]ncc5c4)ncc32)cn1` [compound 98, (7R)-8-cyclohexyl-2-(1H-indazol-5-ylamino)-7-methyl-5-[6-(methylsulfanyl)pyridin-3-yl]-7,8-dihydropteridin-6(5H)-one]: no more than 100 nM. Regarding `COc1cc(F)cc(N2C(=O)[C@@H](C)N(C3CCCCC3)c3nc(Nc4ccc5[nH]ncc5c4)ncc32)c1` [compound 99, (7R)-8-cyclohexyl-5-(3-fluoro-5-methoxyphenyl)-2-(1H-indazol-5-ylamino)-7-methyl-7,8-dihydropteridin-6(5H)-one], the IC50 was no more than 100 nM. The same measure for `C[C@@H]1C(=O)N(c2cccc(C#N)c2)c2cnc(Nc3ccc4[nH]ncc4c3F)nc2N1C1CCCCC1` [compound 100, 3-[(7R)-8-cyclohexyl-2-[(4-fluoro-1H-indazol-5-yl)amino]-7-methyl-6-oxo-7,8-dihydropteridin-5(6H)-yl]benzonitrile]: no more than 100 nM; for `C[C@@H]1C(=O)N(c2cccc(C#N)c2)c2cnc(Nc3ccc4[nH]ncc4c3Cl)nc2N1C1CCCCC1` [compound 101, 3-[(7R)-2-[(4-chloro-1H-indazol-5-yl)amino]-8-cyclohexyl-7-methyl-6-oxo-7,8-dihydropteridin-5(6H)-yl]benzonitrile]: greater than 1000 nM. As to `COc1c(Nc2ncc3c(n2)N(C2CCCCC2)[C@H](C)C(=O)N3c2cccc(C#N)c2)ccc2[nH]ncc12` [compound 102, 3-[(7R)-8-cyclohexyl-2-[(4-methoxy-1H-indazol-5-yl)amino]-7-methyl-6-oxo-7,8-dihydropteridin-5(6H)-yl]benzonitrile], the IC50 is 100 to 1000 nM. The same measure for `Cc1n[nH]c2ccc(Nc3ncc4c(n3)N(C3CCCCC3)[C@H](C)C(=O)N4c3cccc(C#N)c3)cc12` [compound 103, 3-[(7R)-8-cyclohexyl-7-methyl-2-[(3-methyl-1H-indazol-5-yl)amino]-6-oxo-7,8-dihydropteridin-5(6H)-yl]benzonitrile]: 100 to 1000 nM; for `COc1ccc(N2C(=O)[C@@H](C)N(C3CCCCC3)c3nc(Nc4ccc5[nH]ncc5c4)ncc32)cc1C#N` [compound 104, 5-[(7R)-8-cyclohexyl-2-(1H-indazol-5-ylamino)-7-methyl-6-oxo-7,8-dihydropteridin-5(6H)-yl]-2-methoxybenzonitrile]: no more than 100 nM; for `C[C@@H]1C(=O)N(c2ccc(Cl)c(C#N)c2)c2cnc(Nc3ccc4[nH]ncc4c3)nc2N1C1CCCCC1` [compound 105, 2-chloro-5-[(7R)-8-cyclohexyl-2-(1H-indazol-5-ylamino)-7-methyl-6-oxo-7,8-dihydropteridin-5(6H)-yl]benzonitrile]: no more than 100 nM. The same measure for `C[C@@H]1C(=O)N(c2cccc(C#N)c2)c2cnc(Nc3cc(F)c4[nH]ncc4c3)nc2N1C1CCCCC1` [compound 106, 3-[(7R)-8-cyclohexyl-2-[(7-fluoro-1H-indazol-5-yl)amino]-7-methyl-6-oxo-7,8-dihydropteridin-5(6H)-yl]benzonitrile]: no more than 100 nM; for `C[C@@H]1C(=O)N(c2cccc(C#N)c2)c2cnc(Nc3ccc(F)c4[nH]ncc34)nc2N1C1CCCCC1` [compound 107, 3-[(7R)-8-cyclohexyl-2-[(7-fluoro-1H-indazol-4-yl)amino]-7-methyl-6-oxo-7,8-dihydropteridin-5(6H)-yl]benzonitrile]: 100 to 1000 nM.

With `C[C@@H]1C(=O)N(c2cccc(C#N)c2)c2cnc(Nc3ccc4[nH]nc(Cl)c4c3)nc2N1C1CCCCC1` [compound 108, 3-[(7R)-2-[(3-chloro-1H-indazol-5-yl)amino]-8-cyclohexyl-7-methyl-6-oxo-7,8-dihydropteridin-5(6H)-yl]benzonitrile], the IC50 was no more than 100 nM. The same measure for `C[C@@H]1C(=O)N(c2cccc(C#N)c2)c2cnc(Nc3ccc4sncc4c3)nc2N1C1CCCCC1` [compound 109, 3-[(7R)-2-(1,2-benzothiazol-5-ylamino)-8-cyclohexyl-7-methyl-6-oxo-7,8-dihydropteridin-5(6H)-yl]benzonitrile]: 100 to 1000 nM. The same measure for `COCc1cccc(N2C(=O)[C@@H](C)N(C3CCCCC3)c3nc(Nc4ccc5[nH]ncc5c4)ncc32)c1` [compound 110, (7R)-8-cyclohexyl-2-(1H-indazol-5-ylamino)-5-[3-(methoxymethyl)phenyl]-7-methyl-7,8-dihydropteridin-6(5H)-one]: no more than 100 nM; for `COc1ccc(N2C(=O)[C@@H](C)N(C3CCCCC3)c3nc(Nc4ccc5[nH]ncc5c4)ncc32)cc1OC` [compound 111, (7R)-8-cyclohexyl-5-(3,4-dimethoxyphenyl)-2-(1H-indazol-5-ylamino)-7-methyl-7,8-dihydropteridin-6(5H)-one]: no more than 100 nM; for `C[C@@H]1C(=O)N(c2cc(F)cc(C#N)c2)c2cnc(Nc3ccc4[nH]ncc4c3)nc2N1C1CCCCC1` [compound 112, 3-[(7R)-8-cyclohexyl-2-(1H-indazol-5-ylamino)-7-methyl-6-oxo-7,8-dihydropteridin-5(6H)-yl]-5-fluorobenzonitrile]: no more than 100 nM.

Source of the values: US9351974B2, “Substituted pteridinones for the treatment of cancer” (OSI Pharmaceuticals, LLC, priority 2011, dated 2016).
